Measured values as given in the kinase profiling compilation of Christmann-Franck et al. (2016).

Key:
Experiment in all cases: split-luciferase competition binding
AKT1 (human) = AKT1 (human) (UniProt P31749); details: compound 10.0 µM
AKT2 (human) = AKT2 (human) (UniProt P31751); details: compound 10.0 µM
AKT3 (human) = AKT3 (human) (UniProt Q9Y243); details: compound 10.0 µM
AURKA (human) = AURKA (human) (UniProt O14965); details: compound 10.0 µM
AURKB (human) = AURKB (human) (UniProt Q96GD4); details: compound 10.0 µM
AURKC (human) = AURKC (human) (UniProt Q9UQB9); details: compound 10.0 µM
DMPK (human) = DMPK (human) (UniProt Q09013); details: compound 10.0 µM
PDPK1 (human) = PDPK1 (human) (UniProt O15530); details: compound 10.0 µM
PKN1 (human) = PKN1 (human) (UniProt Q16512); details: compound 10.0 µM
PRKACA (mouse) = details: compound 10.0 µM; accession and sequence are those of the human protein
PRKACB (human) = PRKACB (human) (UniProt P22694); details: compound 10.0 µM
PRKCD (human) = PRKCD (human) (UniProt Q05655); details: compound 10.0 µM
PRKCE (human) = PRKCE (human) (UniProt Q02156); details: compound 10.0 µM
PRKCG (human) = PRKCG (human) (UniProt P05129); details: compound 10.0 µM
PRKCH (human) = PRKCH (human) (UniProt P24723); details: compound 10.0 µM
PRKCI (human) = PRKCI (human) (UniProt P41743); details: compound 10.0 µM
PRKCQ (human) = PRKCQ (human) (UniProt Q04759); details: compound 10.0 µM
PRKX (human) = PRKX (human) (UniProt P51817); details: compound 10.0 µM
RPS6KA1 KD1 (human) = RPS6KA1 KD1 (human) (UniProt Q15418); details: compound 10.0 µM
RPS6KA2 KD1 (human) = RPS6KA2 KD1 (human) (UniProt Q15349); details: compound 10.0 µM
RPS6KA3 KD1 (human) = RPS6KA3 KD1 (human) (UniProt P51812); details: compound 10.0 µM
RPS6KA4 KD1 (human) = RPS6KA4 KD1 (human) (UniProt O75676); details: compound 10.0 µM
RPS6KA5 KD1 (human) = RPS6KA5 KD1 (human) (UniProt O75582); details: compound 10.0 µM
RPS6KA6 KD1 (human) = RPS6KA6 KD1 (human) (UniProt Q9UK32); details: compound 10.0 µM
SGK2 (human) = SGK2 (human) (UniProt Q9HBY8); details: compound 10.0 µM
SGK3 (human) = SGK3 (human) (UniProt Q96BR1); details: compound 10.0 µM
STK32B (human) = STK32B (human) (UniProt Q9NY57); details: compound 10.0 µM

Chain of RPS6KA6 KD1 (human) (Q9UK32 whole entry, looked up): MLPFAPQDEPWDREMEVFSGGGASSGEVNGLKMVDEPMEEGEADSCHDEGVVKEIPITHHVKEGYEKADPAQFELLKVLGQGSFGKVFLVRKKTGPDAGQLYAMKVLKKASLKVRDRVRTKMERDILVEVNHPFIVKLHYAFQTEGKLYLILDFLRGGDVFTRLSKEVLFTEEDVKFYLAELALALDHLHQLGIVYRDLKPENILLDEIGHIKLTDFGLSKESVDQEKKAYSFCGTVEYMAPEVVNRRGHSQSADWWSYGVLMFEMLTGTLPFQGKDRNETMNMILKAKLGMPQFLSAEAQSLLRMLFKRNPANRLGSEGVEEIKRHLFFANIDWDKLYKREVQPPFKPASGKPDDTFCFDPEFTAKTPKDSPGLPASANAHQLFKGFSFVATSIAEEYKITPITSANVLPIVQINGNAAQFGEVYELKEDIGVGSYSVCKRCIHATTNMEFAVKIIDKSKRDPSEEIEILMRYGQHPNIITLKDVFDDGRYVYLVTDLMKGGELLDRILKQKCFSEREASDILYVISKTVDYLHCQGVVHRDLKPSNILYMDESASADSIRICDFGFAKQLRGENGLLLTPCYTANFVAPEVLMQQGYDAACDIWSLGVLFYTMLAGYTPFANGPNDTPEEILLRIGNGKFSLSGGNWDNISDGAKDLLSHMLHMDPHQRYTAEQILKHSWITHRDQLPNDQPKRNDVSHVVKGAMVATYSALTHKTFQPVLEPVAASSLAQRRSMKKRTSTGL
Chain of PDPK1 (human) (O15530 whole entry, looked up): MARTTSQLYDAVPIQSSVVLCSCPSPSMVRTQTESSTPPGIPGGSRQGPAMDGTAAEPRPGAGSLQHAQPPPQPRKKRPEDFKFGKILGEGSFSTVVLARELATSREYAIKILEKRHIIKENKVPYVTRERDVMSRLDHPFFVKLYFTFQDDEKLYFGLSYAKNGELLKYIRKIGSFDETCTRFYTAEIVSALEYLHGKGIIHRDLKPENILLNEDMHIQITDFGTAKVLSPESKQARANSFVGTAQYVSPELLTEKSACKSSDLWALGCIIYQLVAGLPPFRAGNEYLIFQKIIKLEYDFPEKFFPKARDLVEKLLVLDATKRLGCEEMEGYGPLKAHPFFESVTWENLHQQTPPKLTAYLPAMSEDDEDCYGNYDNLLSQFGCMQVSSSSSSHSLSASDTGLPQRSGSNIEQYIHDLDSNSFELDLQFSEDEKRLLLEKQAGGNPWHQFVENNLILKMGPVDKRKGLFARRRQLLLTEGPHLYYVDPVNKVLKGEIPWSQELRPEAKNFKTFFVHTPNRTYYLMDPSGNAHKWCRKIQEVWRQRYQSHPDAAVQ
Chain of PRKX (human) (P51817 whole entry, looked up): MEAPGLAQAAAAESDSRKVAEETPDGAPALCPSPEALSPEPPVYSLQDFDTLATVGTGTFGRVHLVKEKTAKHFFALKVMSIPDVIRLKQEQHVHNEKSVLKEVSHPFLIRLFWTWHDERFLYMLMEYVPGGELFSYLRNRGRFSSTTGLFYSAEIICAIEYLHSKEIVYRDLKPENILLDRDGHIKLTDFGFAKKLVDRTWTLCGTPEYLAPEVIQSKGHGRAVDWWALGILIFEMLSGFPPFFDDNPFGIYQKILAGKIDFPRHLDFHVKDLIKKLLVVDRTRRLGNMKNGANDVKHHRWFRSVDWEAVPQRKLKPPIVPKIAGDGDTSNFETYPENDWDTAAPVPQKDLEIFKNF
Chain of AURKB (human) (Q96GD4 whole entry, looked up): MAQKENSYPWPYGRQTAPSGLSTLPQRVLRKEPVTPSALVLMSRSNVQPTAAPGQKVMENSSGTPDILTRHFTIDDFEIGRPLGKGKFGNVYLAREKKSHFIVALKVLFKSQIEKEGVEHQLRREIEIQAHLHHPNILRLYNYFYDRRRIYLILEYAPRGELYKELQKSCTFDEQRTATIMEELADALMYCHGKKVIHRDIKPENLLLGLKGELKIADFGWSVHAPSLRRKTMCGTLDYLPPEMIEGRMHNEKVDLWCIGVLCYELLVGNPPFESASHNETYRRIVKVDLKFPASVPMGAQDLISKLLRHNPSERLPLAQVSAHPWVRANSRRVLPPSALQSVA
Chain of RPS6KA2 KD1 (human) (Q15349 whole entry, looked up): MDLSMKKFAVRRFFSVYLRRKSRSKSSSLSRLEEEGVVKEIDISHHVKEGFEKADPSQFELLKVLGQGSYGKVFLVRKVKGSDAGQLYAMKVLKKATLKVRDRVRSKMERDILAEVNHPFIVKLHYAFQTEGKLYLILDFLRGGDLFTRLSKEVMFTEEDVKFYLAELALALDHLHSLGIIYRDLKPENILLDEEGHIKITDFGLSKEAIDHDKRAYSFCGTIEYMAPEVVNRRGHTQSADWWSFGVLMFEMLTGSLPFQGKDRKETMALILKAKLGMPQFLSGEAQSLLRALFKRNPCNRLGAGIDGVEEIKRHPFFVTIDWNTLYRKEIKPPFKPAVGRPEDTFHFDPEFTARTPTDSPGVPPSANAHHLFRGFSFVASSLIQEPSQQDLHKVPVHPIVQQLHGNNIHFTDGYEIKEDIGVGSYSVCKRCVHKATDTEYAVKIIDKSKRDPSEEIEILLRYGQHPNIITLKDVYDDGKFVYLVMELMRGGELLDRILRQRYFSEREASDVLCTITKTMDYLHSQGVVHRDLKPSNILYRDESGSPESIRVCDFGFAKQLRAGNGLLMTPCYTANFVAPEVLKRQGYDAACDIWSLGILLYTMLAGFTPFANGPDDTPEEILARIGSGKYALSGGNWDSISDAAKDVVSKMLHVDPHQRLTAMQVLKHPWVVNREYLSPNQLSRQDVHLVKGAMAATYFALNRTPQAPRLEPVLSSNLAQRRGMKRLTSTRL
Chain of AKT2 (human) (P31751 whole entry, looked up): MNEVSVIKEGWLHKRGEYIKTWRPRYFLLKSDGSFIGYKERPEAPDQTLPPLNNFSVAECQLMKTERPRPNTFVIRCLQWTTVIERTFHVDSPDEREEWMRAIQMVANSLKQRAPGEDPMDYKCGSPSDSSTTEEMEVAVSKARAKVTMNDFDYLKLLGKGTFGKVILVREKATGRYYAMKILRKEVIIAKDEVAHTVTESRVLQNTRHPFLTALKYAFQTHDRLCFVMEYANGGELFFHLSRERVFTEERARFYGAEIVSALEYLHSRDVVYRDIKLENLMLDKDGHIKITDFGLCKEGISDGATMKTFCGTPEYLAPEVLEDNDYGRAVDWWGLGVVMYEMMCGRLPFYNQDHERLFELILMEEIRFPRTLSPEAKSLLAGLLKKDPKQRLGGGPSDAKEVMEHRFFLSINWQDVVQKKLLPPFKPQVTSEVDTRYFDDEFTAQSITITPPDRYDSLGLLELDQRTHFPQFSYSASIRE
Chain of SGK3 (human) (Q96BR1 whole entry, looked up): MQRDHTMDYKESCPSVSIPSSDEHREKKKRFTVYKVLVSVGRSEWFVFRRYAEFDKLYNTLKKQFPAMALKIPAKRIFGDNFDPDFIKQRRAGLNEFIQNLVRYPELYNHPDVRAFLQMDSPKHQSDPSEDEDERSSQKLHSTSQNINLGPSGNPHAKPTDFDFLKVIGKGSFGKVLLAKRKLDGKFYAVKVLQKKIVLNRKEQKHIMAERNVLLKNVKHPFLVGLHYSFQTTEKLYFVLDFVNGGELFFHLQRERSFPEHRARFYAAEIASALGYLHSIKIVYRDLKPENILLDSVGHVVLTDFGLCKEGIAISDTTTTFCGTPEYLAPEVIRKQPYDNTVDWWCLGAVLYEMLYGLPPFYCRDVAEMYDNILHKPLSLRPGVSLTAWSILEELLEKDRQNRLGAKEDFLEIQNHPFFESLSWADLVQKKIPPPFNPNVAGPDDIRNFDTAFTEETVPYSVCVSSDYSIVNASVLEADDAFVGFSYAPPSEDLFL
Chain of PRKCI (human) (P41743 whole entry, looked up): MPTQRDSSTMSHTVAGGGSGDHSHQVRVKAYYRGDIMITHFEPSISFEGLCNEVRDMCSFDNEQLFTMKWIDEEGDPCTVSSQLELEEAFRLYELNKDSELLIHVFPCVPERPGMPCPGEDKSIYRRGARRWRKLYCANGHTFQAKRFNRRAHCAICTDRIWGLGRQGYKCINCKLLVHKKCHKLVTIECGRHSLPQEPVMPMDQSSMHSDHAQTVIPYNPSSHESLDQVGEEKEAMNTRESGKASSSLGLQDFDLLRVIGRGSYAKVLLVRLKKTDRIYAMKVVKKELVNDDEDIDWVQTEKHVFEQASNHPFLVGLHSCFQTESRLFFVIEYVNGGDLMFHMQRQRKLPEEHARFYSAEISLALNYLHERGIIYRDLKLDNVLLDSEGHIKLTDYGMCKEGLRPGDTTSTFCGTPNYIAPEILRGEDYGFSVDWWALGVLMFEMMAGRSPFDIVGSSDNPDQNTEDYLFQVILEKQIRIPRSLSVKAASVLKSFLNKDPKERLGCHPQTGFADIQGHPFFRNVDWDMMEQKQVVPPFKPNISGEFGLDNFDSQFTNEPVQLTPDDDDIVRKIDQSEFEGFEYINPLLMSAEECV

| SMILES | inhibition (AKT1 (human)) [%] | inhibition (AKT2 (human)) [%] | inhibition (AKT3 (human)) [%] | inhibition (AURKA (human)) [%] | inhibition (AURKB (human)) [%] | inhibition (AURKC (human)) [%] | inhibition (DMPK (human)) [%] | inhibition (PDPK1 (human)) [%] | inhibition (PKN1 (human)) [%] | inhibition (PRKACA (mouse)) [%] | inhibition (PRKACB (human)) [%] | inhibition (PRKCD (human)) [%] | inhibition (PRKCE (human)) [%] | inhibition (PRKCG (human)) [%] | inhibition (PRKCH (human)) [%] | inhibition (PRKCI (human)) [%] | inhibition (PRKCQ (human)) [%] | inhibition (PRKX (human)) [%] | inhibition (RPS6KA1 KD1 (human)) [%] | inhibition (RPS6KA2 KD1 (human)) [%] | other results |
| --- | --- | --- | --- | --- | --- | --- | --- | --- | --- | --- | --- | --- | --- | --- | --- | --- | --- | --- | --- | --- | --- |
| CN(C)CCCn1cc(C2=C(c3c[nH]c4ccccc34)C(=O)NC2=O)c2ccccc21 | 5 | 0 | 37 | 2 | 0 | 0 | 34 | 0 | 5 | 26 | 34 | 52 | 37 | 11 | 77 | 35 | 69 | 10 | 40 | 59 | inhibition (RPS6KA3 KD1 (human)): 33%; inhibition (RPS6KA4 KD1 (human)): 30%; inhibition (RPS6KA5 KD1 (human)): 39%; inhibition (RPS6KA6 KD1 (human)): 32%; inhibition (SGK2 (human)): 0%; inhibition (SGK3 (human)): 2%; inhibition (STK32B (human)): 29% |
| Cc1cc(I)ccc1Nc1c(C(=O)NOCC2CC2)cc(F)c(F)c1F | 0 | 0 | 0 | 0 | 4 | 0 | 20 | 0 | 0 | 0 | 0 | 0 | 9 | 12 | 0 | 0 | 1 | 6 | 6 | 0 | inhibition (RPS6KA3 KD1 (human)): 0%; inhibition (RPS6KA4 KD1 (human)): 0%; inhibition (RPS6KA5 KD1 (human)): 0%; inhibition (RPS6KA6 KD1 (human)): 0%; inhibition (SGK2 (human)): 0%; inhibition (SGK3 (human)): 2%; inhibition (STK32B (human)): 0% |
| CS(=O)c1ccc(-c2nc(-c3ccc(F)cc3)c(-c3ccncc3)[nH]2)cc1 (stereo not drawn) | 11 | 0 | 0 | 6 | 0 | 0 | 0 | 3 | 0 | 0 | 0 | 0 | 0 | 0 | 5 | 0 | 0 | 0 | 0 | 3 | inhibition (RPS6KA3 KD1 (human)): 2%; inhibition (RPS6KA4 KD1 (human)): 0%; inhibition (RPS6KA5 KD1 (human)): 0%; inhibition (RPS6KA6 KD1 (human)): 0%; inhibition (SGK2 (human)): 0%; inhibition (SGK3 (human)): 0%; inhibition (STK32B (human)): 36% |
| O=S(=O)(c1cccc2c(Cl)cccc12)N1CCCNCC1 | 2 | 0 | 0 | 0 | 13 | 0 | 0 | 0 | 1 | 3 | 0 | 0 | 0 | 0 | 0 | 1 | 0 | 25 | 0 | 1 | inhibition (RPS6KA3 KD1 (human)): 0%; inhibition (RPS6KA4 KD1 (human)): 0%; inhibition (RPS6KA5 KD1 (human)): 0%; inhibition (RPS6KA6 KD1 (human)): 0%; inhibition (SGK2 (human)): 0%; inhibition (SGK3 (human)): 0%; inhibition (STK32B (human)): 0% |
| N#C/C(=C\c1ccc(O)c(O)c1)C(N)=S | 0 | 0 | 0 | 1 | 0 | 0 | 0 | 0 | 5 | 4 | 0 | 0 | 0 | 0 | 0 | 0 | 0 | 0 | 0 | 0 | inhibition (RPS6KA3 KD1 (human)): 0%; inhibition (RPS6KA4 KD1 (human)): 0%; inhibition (RPS6KA5 KD1 (human)): 0%; inhibition (RPS6KA6 KD1 (human)): 0%; inhibition (SGK2 (human)): 0%; inhibition (SGK3 (human)): 0%; inhibition (STK32B (human)): 1% |
| CC(C)(C)n1nc(-c2ccc(Cl)cc2)c2c(N)ncnc21 | 0 | 0 | 0 | 0 | 0 | 6 | 26 | 0 | 0 | 30 | 8 | 0 | 0 | 0 | 4 | 0 | 0 | 0 | 7 | 4 | inhibition (RPS6KA3 KD1 (human)): 6%; inhibition (RPS6KA4 KD1 (human)): 0%; inhibition (RPS6KA5 KD1 (human)): 1%; inhibition (RPS6KA6 KD1 (human)): 7%; inhibition (SGK2 (human)): 0%; inhibition (SGK3 (human)): 0%; inhibition (STK32B (human)): 43% |
| Cc1[nH]c(/C=C2\C(=O)Nc3ccc(S(=O)(=O)Cc4c(Cl)cccc4Cl)cc32)c(C)c1C(=O)N1CCC[C@@H]1CN1CCCC1 | 8 | 0 | 0 | 19 | 33 | 39 | 9 | 7 | 0 | 1 | 13 | 0 | 7 | 12 | 12 | 7 | 0 | 7 | 32 | 14 | inhibition (RPS6KA3 KD1 (human)): 13%; inhibition (RPS6KA4 KD1 (human)): 12%; inhibition (RPS6KA5 KD1 (human)): 22%; inhibition (RPS6KA6 KD1 (human)): 25%; inhibition (SGK2 (human)): 2%; inhibition (SGK3 (human)): 0%; inhibition (STK32B (human)): 23% |
| O=S(=O)(c1cccc2c(O)nccc12)N1CCCNCC1 | 0 | 0 | 0 | 0 | 14 | 5 | 0 | 0 | 6 | 19 | 0 | 0 | 0 | 0 | 0 | 37 | 15 | 53 | 0 | 0 | inhibition (RPS6KA3 KD1 (human)): 0%; inhibition (RPS6KA4 KD1 (human)): 0%; inhibition (RPS6KA5 KD1 (human)): 0%; inhibition (RPS6KA6 KD1 (human)): 0%; inhibition (SGK2 (human)): 0%; inhibition (SGK3 (human)): 0%; inhibition (STK32B (human)): 0% |
| O=c1cc(N2CCOCC2)nc2c3ccccc3ccn12 | 0 | 0 | 0 | 0 | 0 | 5 | 0 | 0 | 0 | 0 | 0 | 0 | 6 | 0 | 0 | 0 | 0 | 0 | 0 | 0 | inhibition (RPS6KA3 KD1 (human)): 0%; inhibition (RPS6KA4 KD1 (human)): 0%; inhibition (RPS6KA5 KD1 (human)): 0%; inhibition (RPS6KA6 KD1 (human)): 0%; inhibition (SGK2 (human)): 0%; inhibition (SGK3 (human)): 0%; inhibition (STK32B (human)): 0% |
